Results published in patent US9127018B2, “Solid forms of ortataxel” (Indena S.p.A., priority 2008, dated 2015).

Experiment: physical and chemical stability of the solid form
Assay type: physicochemical
Conditions: solid form prepared with traces of an organic acid (citric acid); storage conditions not given

SMILES: CC(=O)O[C@H]1C(=O)[C@@]2(C)[C@H]([C@H](OC(=O)c3ccccc3)[C@]34OC(=O)O[C@H]3[C@H](OC(=O)[C@H](O)[C@H](CC(C)C)NC(=O)OC(C)(C)C)C(C)=C1C4(C)C)[C@]1(OC(C)=O)CO[C@@H]1C[C@@H]2O [Form A, 13-(N-Boc-β-isobutylserinyl)-14-β-hydroxybaccatin III 1, 14-carbonate]
- chemical and physical stability: at least 36 months
